Measurements from ChEMBL document CHEMBL1154453, “Synthesis and aldose reductase inhibitory activity of some new chromonyl-2,4-thiazolidinediones” (Eur J Med Chem, 2008).
pIC50: −log10 of the molar value.

Assays:
[1] = target: Aldo-keto reductase family 1 member B1 (Rattus norvegicus) (UniProt P07943); experiment: (§1) Inhibition of aldose reductase in Albino rat kidney assessed as decrease in NADPH concentration by spectrophotometrically
[2] = target: Aldo-keto reductase family 1 member B1 (Rattus norvegicus, UniProt P07943); experiment: as §1

inhibition [1] | pIC50 [2] | SMILES
61.2% | 6.09 | Cc1ccc2occ(/C=C3/SC(=O)N(CC(=O)O)C3=O)c(=O)c2c1
49.7% |  | Cc1cc(C)c2occ(/C=C3/SC(=O)NC3=O)c(=O)c2c1
52.7% | 6.03 | Cc1ccc2occ(/C=C3/SC(=O)NC3=O)c(=O)c2c1
68.6% | 6.17 | Cc1cc(C)c2occ(/C=C3/SC(=O)N(CC(=O)O)C3=O)c(=O)c2c1
8.18% |  | CCOC(=O)CN1C(=O)S/C(=C/c2coc3ccccc3c2=O)C1=O
42.4% |  | O=C1NC(=O)/C(=C\c2coc3ccccc3c2=O)S1
9.46% |  | CCOC(=O)CN1C(=O)S/C(=C/c2coc3ccc(C(C)C)cc3c2=O)C1=O

More lines, now with the values behind:

SMILES | inhibition [1] | pIC50 [2]
CCOC(=O)CN1C(=O)S/C(=C/c2coc3ccc(C)cc3c2=O)C1=O | 0% | 
CC(C)c1ccc2occ(/C=C3/SC(=O)N(CC(=O)O)C3=O)c(=O)c2c1 | 77.3% | 6.28
O=C(O)CN1C(=O)S/C(=C/c2coc3ccccc3c2=O)C1=O | 49.4% | 
O=C1NC(=O)/C(=C\c2coc3ccc([N+](=O)[O-])cc3c2=O)S1 | 46.7% | 
CC(C)c1ccc2occ(/C=C3/SC(=O)NC3=O)c(=O)c2c1 | 50.8% | 6.02
CCOC(=O)CN1C(=O)S/C(=C/c2coc3c(C)cc(C)cc3c2=O)C1=O | 0% | 
O=C(O)CN1C(=O)S/C(=C/c2coc3ccc([N+](=O)[O-])cc3c2=O)C1=O | 82.4% | 6.58
